Measured values taken from patent US12509447B2, “Small molecule compound” (Technoderma Medicines Pte Ltd, priority 2019, dated 2025).

Experiments:
Format in all cases: biochemical
JAK1 = JAK1 (Homo sapiens, UniProt P23458); experiment: Inhibition of JAK kinase activity, EZ Reader microfluidic phosphorylation of peptide substrate: JAK1; conditions: JAK1 kinase 20 nM; highest final concentration 10 μM, 1:3 serial dilution, 8 points, duplicates
In short: (§1)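 Microfluidic mobility-shift assay reading fluorescent peptide substrate and product; kinases at 20 nM (JAK1) or 1 nM (JAK2, JAK3, Tyk2) in pH 7.4 HEPES with 10 mM MgCl2, run at room temperature to 20-30% conversion, then stopped with EDTA. Compounds tested from 10 μM top, 1:3 over 8 points in duplicate; IC50 fitted from % conversion.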

JAK3 = biological target: T1, JAK3 (Homo sapiens, UniProt P52333); experiment: Inhibition of JAK kinase activity, EZ Reader microfluidic phosphorylation of peptide substrate: JAK3; conditions: JAK3 kinase 1 nM; highest final concentration 10 μM, 1:3 serial dilution, 8 points, duplicates
T1 sequence (P52333 1-1124): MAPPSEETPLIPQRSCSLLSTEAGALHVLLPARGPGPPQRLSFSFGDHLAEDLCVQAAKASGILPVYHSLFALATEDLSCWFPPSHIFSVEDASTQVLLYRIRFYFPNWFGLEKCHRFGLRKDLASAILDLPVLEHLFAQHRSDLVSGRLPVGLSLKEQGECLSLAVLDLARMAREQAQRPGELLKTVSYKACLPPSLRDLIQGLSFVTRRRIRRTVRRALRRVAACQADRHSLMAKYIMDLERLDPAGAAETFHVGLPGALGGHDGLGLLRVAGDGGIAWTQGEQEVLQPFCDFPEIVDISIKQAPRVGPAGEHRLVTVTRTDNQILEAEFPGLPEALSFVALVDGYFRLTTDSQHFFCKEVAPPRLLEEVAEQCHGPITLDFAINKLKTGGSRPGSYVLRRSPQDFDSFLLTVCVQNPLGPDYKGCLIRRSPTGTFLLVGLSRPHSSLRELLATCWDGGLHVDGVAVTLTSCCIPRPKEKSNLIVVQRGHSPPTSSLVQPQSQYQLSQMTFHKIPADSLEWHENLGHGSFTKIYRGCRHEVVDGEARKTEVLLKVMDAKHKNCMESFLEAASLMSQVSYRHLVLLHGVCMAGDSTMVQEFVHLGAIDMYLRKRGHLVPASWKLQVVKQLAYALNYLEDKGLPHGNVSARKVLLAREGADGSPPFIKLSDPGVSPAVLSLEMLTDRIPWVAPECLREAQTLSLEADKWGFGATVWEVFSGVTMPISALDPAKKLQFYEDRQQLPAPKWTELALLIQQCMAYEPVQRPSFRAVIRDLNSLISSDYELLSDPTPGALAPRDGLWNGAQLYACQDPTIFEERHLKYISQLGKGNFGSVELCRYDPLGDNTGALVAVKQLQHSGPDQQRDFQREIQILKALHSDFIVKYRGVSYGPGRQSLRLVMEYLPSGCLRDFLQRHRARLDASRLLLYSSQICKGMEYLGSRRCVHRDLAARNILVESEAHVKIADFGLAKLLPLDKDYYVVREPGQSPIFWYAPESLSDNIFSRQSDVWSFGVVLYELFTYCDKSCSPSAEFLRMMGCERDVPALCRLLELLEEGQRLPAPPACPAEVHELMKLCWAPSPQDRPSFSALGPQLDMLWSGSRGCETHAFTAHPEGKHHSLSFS
Excerpt: (§2) EZ Reader available from PerkinElmer can be used for detecting the phosphorylation of polypeptide substrates catalyzed by kinases. This device is based on microfluidic separation technology, and can directly detect fluorescence labeled substrates and products. The separation step is achieved in a microfluidic chip by controlling the pressure and electric field intensity. In a kinase experiment, the product conversion rate is generally controlled at 20-30%. This biological assay method is used for identifying the inhibitory effect of the compounds on JAK.
(§3) The compound powder was dissolved in DMSO, sealed and stored in a refrigerator at −20° C. The in-house compound Ref1 was used as a positive control for testing of JAK1, JAK2 and Tyk2, and Ref2 was used as a positive control for testing of JAK3.
(§4) • S2.1. 1M HEPES buffer: 0.5M HEPES free acid and 0.5M HEPES sodium salt are weighed, added into ultrapure water for dissolution, brought to a desired volume, filtered and stored in a refrigerator at 4° C. • S2.2. 40 mM ATP solution: dissolved in a 50 mM HEPES buffer solution, prepared into 40 mM, aliquoted, and cryopreserved in a refrigerator at −20° C. • S2.3. 0.5% Tween 20: 100% Tween 20 was diluted with ultrapure water, and stored in a refrigerator at 4° C. • S2.4. 35% bovine serum albumin: a 35% bovine serum albumin solution is prepared in ultrapure water, aliquoted, and stored in a refrigerator at −20° C. • S2.5. 1M dithiothreitol solution: dithiothreitol is formulated into a 1M solution with ultrapure water, aliquoted, and stored in a refrigerator at −20° C. • S2.6. 0.5 mM Jaktide Peptide substrate solution: it is dissolved in 50 mM HEPES to 0.5 mM, aliquoted, and stored in a refrigerator at −20° C. • S2.7. 0.5 mM IRStide Peptide substrate solution: it is dissolved in 50 mM HEPES to 0.5 mM, aliquoted, and stored in a refrigerator at −20° C. • S2.8. Assay Buffer: 20 mM HEPES buffer, pH 7.4, 10 mM magnesium chloride, 0.01% bovine serum albumin BSA, 0.0005% Tween-20, and a 1 mM dithiothreitol solution. • S2.9. Stop Buffer: 180 mM HEPES buffer, 20 mM ethylenediamine tetraacetic acid (EDTA), and 0.2% Coating Reagent 3. • S2.10. Separation Buffer: 100 mM HEPES buffer, 10 mM EDTA, 0.0005% Tween 20, 0.1% Coating Reagent 3, and 1% dimethyl sulfoxide. 3. Experimental Procedures • S3.1. Preparation of compound plate
(§5) The compound is dissolved in dimethyl sulfoxide to 10 mM, a certain volume is taken and diluted to 0.6 mM, 10 μl of the diluted 0.6 mM solution is taken and added into a 384 microplate or 1:3 serial dilution, with a total of 8 concentration points. • S3.2. Compound layout
(§6) • positive control (HPE1): Ref1, final concentration: 10 μM • positive control (HPE1): Ref2, final concentration: 10 μM • negative control (ZPE): DMSO, with a final concentration of 1.6% • Compound: the highest final concentration at 10 μM, 1:3 serial dilution, with 8 concentration points and in duplicates. 4. Experimental operation steps • S4.1. the experimental plate was added with 250 nl of the compound per well with ECHO, and centrifuged at 1,000 rpm for 1 minute; • S4.2. the precipitate was added with 5 μl of the experimental buffer, and shaken for several seconds to fully dissolve the compound; • S4.3. the solution was added with 5 μl of a 3× substrate solution, as well as 5 μl of a 3× kinase solution, and centrifuged at 800 rpm for 1 minute; • S4.4. The final concentrations of JAK1, JAK2, JAK3 and Tyk2 kinases in the reaction system are 20, 1, 1 and 1 nM, respectively. • S4.5. the reaction system is incubated at room temperature, wherein the incubation time of each kinase is different, and there are differences in incubation time of different batches of kinases. • S4.6. When the reaction reaches 20%-30%, the reaction system is added with 15 μl of the stop buffer to terminate the reaction, and centrifuged at 1,000 rpm for 2 minutes. • S4.7. The precipitate was placed onto a EZ Reader for plate reading. • S4.8. […]

JAK2 = JAK2 (Homo sapiens, UniProt O60674); experiment: Inhibition of JAK kinase activity, EZ Reader microfluidic phosphorylation of peptide substrate: JAK2; conditions: JAK2 kinase 1 nM; highest final concentration 10 μM, 1:3 serial dilution, 8 points, duplicates
Chain of JAK2 (O60674 whole entry): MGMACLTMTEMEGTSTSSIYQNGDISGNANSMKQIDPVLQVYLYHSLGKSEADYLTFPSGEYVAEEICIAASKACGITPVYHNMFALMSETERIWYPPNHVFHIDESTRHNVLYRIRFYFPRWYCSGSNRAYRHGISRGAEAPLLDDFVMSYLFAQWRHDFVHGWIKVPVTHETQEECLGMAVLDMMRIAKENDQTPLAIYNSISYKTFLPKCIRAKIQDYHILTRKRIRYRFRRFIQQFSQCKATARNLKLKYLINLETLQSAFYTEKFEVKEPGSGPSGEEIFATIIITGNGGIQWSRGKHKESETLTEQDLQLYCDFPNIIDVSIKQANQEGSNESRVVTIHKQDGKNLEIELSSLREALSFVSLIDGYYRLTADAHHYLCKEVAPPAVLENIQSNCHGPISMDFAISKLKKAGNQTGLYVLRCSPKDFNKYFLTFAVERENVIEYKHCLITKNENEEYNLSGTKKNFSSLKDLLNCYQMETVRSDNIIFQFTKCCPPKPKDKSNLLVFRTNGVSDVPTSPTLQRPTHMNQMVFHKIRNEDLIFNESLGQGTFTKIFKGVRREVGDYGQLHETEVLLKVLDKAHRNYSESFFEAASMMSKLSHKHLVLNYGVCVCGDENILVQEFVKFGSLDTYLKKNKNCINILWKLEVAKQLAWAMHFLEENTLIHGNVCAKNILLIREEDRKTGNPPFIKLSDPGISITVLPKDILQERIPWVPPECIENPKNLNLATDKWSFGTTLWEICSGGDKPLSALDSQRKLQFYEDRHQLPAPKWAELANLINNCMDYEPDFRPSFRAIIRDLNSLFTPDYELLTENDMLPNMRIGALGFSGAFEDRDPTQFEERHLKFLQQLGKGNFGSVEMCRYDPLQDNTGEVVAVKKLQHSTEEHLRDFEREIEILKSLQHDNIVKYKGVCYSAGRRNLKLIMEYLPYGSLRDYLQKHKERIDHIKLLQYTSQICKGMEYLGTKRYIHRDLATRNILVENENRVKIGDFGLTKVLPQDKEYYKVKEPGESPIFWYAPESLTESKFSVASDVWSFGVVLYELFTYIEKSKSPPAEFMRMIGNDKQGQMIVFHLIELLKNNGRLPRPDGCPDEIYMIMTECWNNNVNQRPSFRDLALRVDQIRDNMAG
Excerpt: as §2, §3, §4, §5, §6

Tyk2 = Tyk2 (Homo sapiens, UniProt P29597); experiment: Inhibition of JAK kinase activity, EZ Reader microfluidic phosphorylation of peptide substrate: Tyk2; conditions: Tyk2 kinase 1 nM; highest final concentration 10 μM, 1:3 serial dilution, 8 points, duplicates
Chain of Tyk2 (P29597 whole entry): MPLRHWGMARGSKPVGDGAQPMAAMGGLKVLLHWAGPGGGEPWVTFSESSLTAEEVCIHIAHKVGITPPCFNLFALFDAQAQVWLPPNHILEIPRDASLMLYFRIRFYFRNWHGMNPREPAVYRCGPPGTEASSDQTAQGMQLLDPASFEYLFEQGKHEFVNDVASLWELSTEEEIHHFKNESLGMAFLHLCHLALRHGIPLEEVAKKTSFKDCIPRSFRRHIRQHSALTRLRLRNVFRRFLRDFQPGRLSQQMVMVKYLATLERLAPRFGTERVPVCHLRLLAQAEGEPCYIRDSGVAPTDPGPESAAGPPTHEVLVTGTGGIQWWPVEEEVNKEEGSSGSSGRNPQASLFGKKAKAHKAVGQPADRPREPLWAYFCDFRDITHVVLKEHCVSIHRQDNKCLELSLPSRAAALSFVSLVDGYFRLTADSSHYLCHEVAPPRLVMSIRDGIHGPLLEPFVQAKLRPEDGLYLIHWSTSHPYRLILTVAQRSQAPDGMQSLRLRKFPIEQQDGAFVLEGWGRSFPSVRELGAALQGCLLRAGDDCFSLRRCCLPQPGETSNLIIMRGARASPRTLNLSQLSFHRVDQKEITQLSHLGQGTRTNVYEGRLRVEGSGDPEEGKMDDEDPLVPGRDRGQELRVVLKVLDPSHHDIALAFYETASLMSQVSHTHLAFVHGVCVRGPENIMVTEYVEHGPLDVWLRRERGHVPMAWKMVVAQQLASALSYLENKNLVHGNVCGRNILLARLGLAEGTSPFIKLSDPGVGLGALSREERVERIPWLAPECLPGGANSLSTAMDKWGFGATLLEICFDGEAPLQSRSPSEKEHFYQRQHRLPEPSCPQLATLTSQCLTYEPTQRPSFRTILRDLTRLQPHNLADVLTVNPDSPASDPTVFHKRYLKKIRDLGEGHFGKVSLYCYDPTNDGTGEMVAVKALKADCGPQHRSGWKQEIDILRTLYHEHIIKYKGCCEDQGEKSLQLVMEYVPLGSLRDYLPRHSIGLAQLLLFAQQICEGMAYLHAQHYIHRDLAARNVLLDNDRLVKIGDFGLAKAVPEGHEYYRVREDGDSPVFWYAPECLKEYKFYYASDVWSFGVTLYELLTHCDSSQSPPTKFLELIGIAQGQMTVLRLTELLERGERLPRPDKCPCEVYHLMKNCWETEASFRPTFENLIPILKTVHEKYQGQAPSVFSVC
In short: as §1

Chain of JAK1 (P23458 whole entry): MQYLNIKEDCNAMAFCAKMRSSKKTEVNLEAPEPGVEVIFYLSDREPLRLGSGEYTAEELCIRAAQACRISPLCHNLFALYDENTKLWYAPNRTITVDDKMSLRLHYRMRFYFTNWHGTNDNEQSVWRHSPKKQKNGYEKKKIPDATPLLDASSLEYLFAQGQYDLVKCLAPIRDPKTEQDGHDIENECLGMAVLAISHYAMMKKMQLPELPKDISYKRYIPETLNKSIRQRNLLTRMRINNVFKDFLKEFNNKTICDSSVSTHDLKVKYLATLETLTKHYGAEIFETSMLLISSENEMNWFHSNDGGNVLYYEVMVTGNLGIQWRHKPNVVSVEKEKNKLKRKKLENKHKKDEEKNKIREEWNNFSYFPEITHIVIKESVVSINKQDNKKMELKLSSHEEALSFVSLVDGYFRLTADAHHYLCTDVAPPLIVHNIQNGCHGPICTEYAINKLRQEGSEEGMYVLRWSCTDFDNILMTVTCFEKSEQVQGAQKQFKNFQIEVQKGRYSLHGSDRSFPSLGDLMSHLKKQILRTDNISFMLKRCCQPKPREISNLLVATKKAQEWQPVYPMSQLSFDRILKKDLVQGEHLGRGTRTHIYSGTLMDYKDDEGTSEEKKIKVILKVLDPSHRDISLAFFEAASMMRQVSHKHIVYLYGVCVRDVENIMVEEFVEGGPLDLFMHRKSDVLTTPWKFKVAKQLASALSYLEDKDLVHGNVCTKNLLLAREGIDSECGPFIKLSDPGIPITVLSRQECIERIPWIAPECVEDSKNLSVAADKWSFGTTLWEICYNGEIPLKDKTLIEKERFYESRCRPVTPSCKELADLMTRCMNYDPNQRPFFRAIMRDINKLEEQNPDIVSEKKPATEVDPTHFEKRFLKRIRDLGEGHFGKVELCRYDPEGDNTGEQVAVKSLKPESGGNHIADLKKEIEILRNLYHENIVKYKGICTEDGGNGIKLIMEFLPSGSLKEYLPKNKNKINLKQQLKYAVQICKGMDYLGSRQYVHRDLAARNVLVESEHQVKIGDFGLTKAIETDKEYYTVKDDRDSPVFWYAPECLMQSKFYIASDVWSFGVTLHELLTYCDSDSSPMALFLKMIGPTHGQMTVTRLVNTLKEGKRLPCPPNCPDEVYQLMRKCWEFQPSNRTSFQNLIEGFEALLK

Structure (SMILES) | IC50 (JAK1) [µM] | IC50 (JAK3) [µM] | IC50 (JAK2) [µM] | IC50 (Tyk2) [µM]
CCCS(=O)(=O)N1CCC(n2cc(-c3ccnc(Nc4cnn(C)c4)n3)cn2)CC1 [TDM-180675, N-(1-methyl-1H-pyrazol-4-yl)-4-(1-(1-(propylsulfonyl)piperidin-4-yl)-1H-pyrazol-4-yl)pyrimidin-2-amine] | ≥ 10 | ≥ 10 | 1 to 10 | ≥ 10
CCC(=O)N1CCC(n2cc(-c3ccnc(Nc4cnn(C)c4)n3)cn2)CC1 [TDM-180676, 1-(4-(4-(2-((1-methyl-1H-pyrazol-4-yl)amino)pyrimidin-4-yl)-1H-pyrazol-1-yl)piperidin-1-yl)propan-1-one] | ≥ 10 | ≥ 10 | ≥ 10 | ≥ 10
CCCC(=O)N1CCC(n2cc(-c3ccnc(Nc4cnn(C)c4)n3)cn2)CC1 [TDM-180677, 1-(4-(4-(2-((1-methyl-1H-pyrazol-4-yl)amino)pyrimidin-4-yl)-1H-pyrazol-1-yl)piperidin-1-yl)butan-1-one] | ≥ 10 | ≥ 10 | ≥ 10 | ≥ 10
Cn1cc(Nc2nccc(-c3cnn(C4CCN(C(=O)CC(F)(F)F)CC4)c3)n2)cn1 [TDM-180678, 3,3,3-trifluoro-1-(4-(4-(2-((1-methyl-1H-pyrazol-4-yl)amino)pyrimidin-4-yl)-1H-pyrazol-1-yl)piperidin-1-yl)propan-1-one] | ≥ 10 | ≥ 10 | ≥ 10 | ≥ 10
Cn1cc(Nc2nccc(-c3cnn(C4CCN(C(=O)C5CC5(F)F)CC4)c3)n2)cn1 (stereo not shown) [TDM-180679, (2,2-difluorocyclopropyl)(4-(4-(2-((1-methyl-1H-pyrazol-4-yl)amino)pyrimidin-4-yl)-1H-pyrazol-1-yl)piperidin-1-yl)ketone] | ≥ 10 | ≥ 10 | ≥ 10 | ≥ 10
Cn1cc(Nc2nccc(-c3cnn(C4CCN(C(=O)CC#N)CC4)c3)n2)cn1 [TDM-180680, 3-(4-(4-(2-((1-methyl-1H-pyrazol-4-yl)amino)pyrimidin-4-yl)-1H-pyrazol-1-yl)piperidin-1-yl)3-oxopropanenitrile] | ≥ 10 | ≥ 10 | ≥ 10 | ≥ 10
Cn1cc(Nc2nccc(-c3cnn(C4CCN(C(=O)CO)CC4)c3)n2)cn1 [TDM-180681, 2-hydroxy-1-(4-(4-(2-((1-methyl-1H-pyrazol-4-yl)amino)pyrimidin-4-yl)-1H-pyrazol-1-yl)piperidin-1-yl)ethanone] | ≥ 10 | ≥ 10 | ≥ 10 | ≥ 10
Cn1cc(Nc2nccc(-c3cnn(C4(CC#N)CN(C(=O)C5CC5(F)F)C4)c3)n2)cn1 (stereo not shown) [TDM-180726, 2-(1-(2,2-difluorocyclo-1-carbonyl)-3-(4-(2-((1-methyl-1H-pyrazol-4-yl)amino)pyrimidin-4-yl)-1H-pyrazol-1-yl)azetidin-3-yl)acetonitrile] | 0.1 to 1 | 1 to 10 | 0.1 to 1 | 0.1 to 1
Cn1cc(Nc2nccc(-c3cnn(C4(CC#N)CN(C(=O)CC#N)C4)c3)n2)cn1 [TDM-180727, 3-(3-(cyanomethyl)-3-(4-(2-((1-methyl-1H-pyrazol-4-yl)amino)pyrimidin-4-yl)-1H-pyrazol-1-yl)azetidinpiperazin-1-yl)-3-oxypropionitrile] | 0.1 to 1 | ≥ 10 | 1 to 10 | 0.1 to 1
CCS(=O)(=O)N1CC(CC#N)(n2cc(-c3ccnc(Nc4cnn(C)c4)n3)cn2)C1 [TDM-180728, 2-(1-(ethylsulfonyl)-3-(4-(2-((1-methyl-1H-pyrazol-4-yl)amino)pyrimidin-4-yl)-1H-pyrazol-1-yl)azetidinpyridin-3-yl)acetonitrile] | 0.1 to 1 | 1 to 10 | < 0.1 | 0.1 to 1
Cn1cc(Nc2nccc(-c3cnn(C4(CC#N)CN(C(=O)CC(F)(F)F)C4)c3)n2)cn1 [TDM-180752, 2-(3-(4-(2-((1-methyl-1H-pyrazol-4-yl)amino)pyrimidin-4-yl)-1H-pyrazol-1-yl)-1-(3,3,3-trifluoropropionyl)azetidin-3-yl)acetonitrile] | 0.1 to 1 | 1 to 10 | 0.1 to 1 | 0.1 to 1
Cn1cc(Nc2nccc(-c3cnn(C4(CC#N)CN(C(=O)C5CC5)C4)c3)n2)cn1 [TDM-180753, 2-(1-(cyclopropanecarbonyl)-3-(4-(2-((1-methyl-1H-pyrazol-4-yl)amino)pyrimidin-4-yl)-1H-pyrazol-1-yl)azetidinpyridin-3-yl)acetonitrile] | 0.1 to 1 | ≥ 10 | 1 to 10 | 0.1 to 1
Cn1cc(Nc2nccc(-c3cnn(C4(CC#N)CN(S(=O)(=O)C5CC5)C4)c3)n2)cn1 [TDM-180766, 2-(1-(cyclopropylsulfonyl)-3-(4-(2-((1-methyl-1H-pyrazol-4-yl)amino)pyrimidin-4-yl)-1H-pyrazol-1-yl)azetidinpyridin-3-yl)acetonitrile] | 0.1 to 1 | 1 to 10 | < 0.1 | < 0.1
